Literature values in publication PMC12399788, “A Comparison of the Molecular Pharmacological Properties of Current Short, Long, and Ultra‐Long‐Acting β2‐Agonists Used for Asthma and COPD” (Pharmacology Research & Perspectives, 2025).

Key:
conscious guinea pigs = details: equipotent nebulized agents
human lung (mast cells) = details: histamine release from human lung (mast cells)
guinea pig tracheal = system: guinea pig tracheal; set-up: method as in PMID 20402514; details: guinea pig tracheal studies

Structure (SMILES)	bronchodilation at 6 h (conscious guinea pigs; 6 h)	response remaining (% maximal) (human lung (mast cells); at 20 h)	duration (guinea pig tracheal)	duration of action (human trachea)	bronchodilation duration (conscious guinea pigs)	time by which response was lost (human lung (mast cells))	duration of action relative to salbutamol (human trachea)
OCc1cc(C(O)CNCCCCCCOCCCCc2ccccc2)ccc1O (centres unmarked) [Salmeterol, salmeterol]	no reduction	75%					
CCc1cc2c(cc1CC)CC(NC[C@H](O)c1ccc(O)c3[nH]c(=O)ccc13)C2 [Indacaterol, indacaterol]			over 12 h				
CC(C)(C)NCC(O)c1ccc(O)c(CO)c1 (centres unmarked) [Salbutamol, salbutamol]			0.9 h	7.6 min	less than 1.5 h	≤ 4 h	
COc1ccc(CC(C)NCC(O)c2ccc(O)c(NC=O)c2)cc1 (centres unmarked) [Formoterol, formoterol]			1.2 h	34 min	3 h		4.5 times longer
